Columns and labels:
[1] = target: T1, Bromodomain-containing protein 4 [348-457] (Human, UniProt O60885); assay: Biological Activity Primary Activity Assay
T1 construct: 348-457
Procedure: (§1) 90 μL per well of cell suspension without tracer was also dispensed into at least 3 wells as “No tracer control samples” for background correction. Serially diluted test compounds were prepared at 1000× concentration in DMSO and further diluted to 10× concentration in Opti-MEM. […] Plates were then incubated at 37° C. +5% 002 incubator for 2 hours.

[2] = target: Bromodomain-containing protein 4 [58-164] (Homo sapiens, UniProt O60885); assay: Biological Activity Primary Activity Assay
Procedure: as §1

SMILES | IC50 [1] | IC50 [2] [µM]
CNC(=O)c1c(OC(C)c2ccc3c(c2)COC3)cc(C(N)=O)n1C (centres undefined) [US20250263370, Example 15] | in the range around 0.6 µM | > 10
CCNC(=O)c1[nH]c(C(=O)NC)c([C@H](C)c2ccccc2F)c1C [US20250263370, Example 74] | in the range around 5.5 µM | > 10
